In brackets after ≈: the same amount, converted by molar mass. *1 amine or outer side, *2 acyl side, *3 side chain or, on linkers, in order; H or OH if unused. Where a SMILES comes first, the peptide text is derived from it. [ ]: non-standard residue; d: D form. The star is where a group is joined. X5 = CCCC[C@@H](OC[C@@H](C)N[*:1])[C@@H](CCCC)C(=O)[*:2]; X2 = CCCCCC[C@@H](OC[C@@H](C)N[*:1])[C@@H](C)C(=O)[*:2]; X21 = C[C@H](CO[C@@H]1CCCCCC[C@H]1C(=O)[*:2])N[*:1]; X14 = CCCCCC[C@@H](OCCN[*:1])[C@@H](C)C(=O)[*:2]; Cyclobutyl(trans-3-NH2) = N[C@H]1C[C@H](*)C1; Gly(cHept) = N[C@H](C(=O)O)C1CCCCCC1; Propyl(3-guanidino) = N=C(N)NCCC*; aThr = C[C@H](O)[C@H](N)C(=O)O; NMeL = CN[C@@H](CC(C)C)C(=O)O; Chg = N[C@H](C(=O)O)C1CCCCC1; NMeNva = CCC[C@H](NC)C(=O)O; Propyl(3-NMe2) = CN(C)CCC*; Dap = NC[C@H](N)C(=O)O; X4 = NCC(F)(F)C*
Tested on: Escherichia coli (E. coli) strain CFT073 ATCC 700928
Type: cell-based
Settings: ATCC 700928, 22 h
Summary of the method: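 Broth microdilution MIC per CLSI M07-A8 in cation-adjusted Mueller Hinton II broth with 0.002% Tween-80. Ten-point 2-fold series topped at 64, 4, 0.5 or 0.13 μg/mL depending on protocol. Final inoculum OD600 0.0005, incubated 22 h at 35 °C.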

Row | MIC | Structure (SMILES)
1 | 50 µM (≈ 36.3 µg/mL) | CCCCCCCCCC[C@H]1OC(=O)CNC(=O)[C@H]([C@H](C)O)NC(=O)[C@H](CN)NC(=O)[C@H](CCCOC)NC(=O)[C@H](CC(C)C)N(C)C(=O)[C@@H]1C [Example 87, (6S,9S,12S,15S,18R,19R)-9-(aminomethyl)-19-decyl-15-isobutyl-12-(3-methoxypropyl)-16,18-dimethyl-6-[(1S)-1-hydroxyethyl]-1-oxa-4,7,10,13,16-pentazacyclononadecane-2,5,8,11,14,17-hexone]
2 | 50 µM (≈ 38 µg/mL) | CCCCCCCCCC[C@H]1OC(=O)CNC(=O)[C@H]([C@H](C)O)NC(=O)[C@H](CN)NC(=O)[C@H]([C@H](C)CC)NC(=O)[C@H](CCc2ccccc2)N(C)C(=O)[C@@H]1C [Example 88, (6S,9S,12S,15S,18R,19R)-9-(aminomethyl)-19-decyl-16,18-dimethyl-15-(2-phenylethyl)-6-[(1S)-1-hydroxyethyl]-12-[(1R)-1-methylpropyl]-1-oxa-4,7,10,13,16-pentazacyclononadecane-2,5,8,11,14,17-hexone]
3 | 12 µM (≈ 8.43 µg/mL) | CC[C@@H](C)[C@@H]1NC(=O)[C@H](CC(C)C)N(C)C(=O)[C@H](C)[C@@H](CCCCc2ccccc2)OC(=O)CNC(=O)[C@H]([C@H](C)O)NC(=O)[C@H](CN)NC1=O [Example 89, (6S,9S,12S,15S,18R,19R)-9-(aminomethyl)-15-isobutyl-16,18-dimethyl-19-(4-phenylbutyl)-6-[(1S)-1-hydroxyethyl]-12-[(1R)-1-methylpropyl]-1-oxa-4,7,10,13,16-pentazacyclononadecane-2,5,8,11,14,17-hexone]
4 | 21 µM (≈ 13.8 µg/mL) | CCCCCC[C@H]1OC(=O)CNC(=O)[C@H]([C@H](C)O)NC(=O)[C@H](CN)NC(=O)[C@H](CC(C)C)NC(=O)[C@H](CC(C)C)N(C)C(=O)[C@@H]1C [Example 90, (6S,9S,12S,15S,18R,19R)-9-(aminomethyl)-19-hexyl-12,15-diisobutyl-16,18-dimethyl-6-[(1S)-1-hydroxyethyl]-1-oxa-4,7,10,13,16-pentazacyclononadecane-2,5,8,11,14,17-hexone]
5 | 50 µM (≈ 34.4 µg/mL) | CCCCCC[C@H]1OC(=O)CNC(=O)[C@H]([C@H](C)O)NC(=O)[C@H](CN)NC(=O)[C@H](Cc2ccccc2)NC(=O)[C@H](CC(C)C)N(C)C(=O)[C@@H]1C [Example 91, (6S,9S,12S,15S,18R,19R)-9-(aminomethyl)-12-benzyl-19-hexyl-15-isobutyl-16,18-dimethyl-6-[(1S)-1-hydroxyethyl]-1-oxa-4,7,10,13,16-pentazacyclononadecane-2,5,8,11,14,17-hexone]
6 | 19 µM (≈ 14.9 µg/mL) | CCCCCCCCCC[C@H]1OC(=O)CNC(=O)[C@H](COCCOCCN)NC(=O)[C@H](CO)NC(=O)[C@H]([C@@H](C)CC)NC(=O)[C@H](CC(C)C)N(C)C(=O)[C@@H]1C [Example 92, (6S,9S,12S,15S,18R,19R)-6-[2-(2-aminoethoxy)ethoxymethyl]-19-decyl-9-(hydroxymethyl)-15-isobutyl-16,18-dimethyl-12-[(1S)-1-methylpropyl]-1-oxa-4,7,10,13,16-pentazacyclononadecane-2,5,8,11,14,17-hexone]
7 | 10 µM (≈ 7.39 µg/mL) | CCCCCCCCCC[C@H]1OC(=O)[C@@H](CC)NC(=O)[C@H]([C@H](C)O)NC(=O)[C@H](CN)NC(=O)[C@H]([C@H](C)CC)NC(=O)[C@H](CC(C)C)N(C)C(=O)[C@@H]1C [Example 93, (3R,6S,9S,12S,15S,18R,19R)-9-(aminomethyl)-19-decyl-3-ethyl-15-isobutyl-16,18-dimethyl-6-[(1S)-1-hydroxyethyl]-12-[(1R)-1-methylpropyl]-1-oxa-4,7,10,13,16-pentazacyclononadecane-2,5,8,11,14,17-hexone]
8 | 14 µM (≈ 10.6 µg/mL) | CCCCCCCCCC[C@H]1OC(=O)CNC(=O)[C@H](COCCCN)NC(=O)[C@H](CO)NC(=O)[C@H]([C@@H](C)CC)NC(=O)[C@H](CC(C)C)N(C)C(=O)[C@@H]1C [Example 95, (6S,9S,12S,15S,18R,19R)-6-(3-aminopropoxymethyl)-19-decyl-9-(hydroxymethyl)-15-isobutyl-16,18-dimethyl-12-[(1S)-1-methylpropyl]-1-oxa-4,7,10,13,16-pentazacyclononadecane-2,5,8,11,14,17-hexone]

The remaining lines, values behind:

Row | Structure (SMILES) | MIC
9 | CCCC[C@H]1OC[C@@H](C)NC(=O)[C@H]([C@H](C)O)NC(=O)[C@H](CN)NC(=O)[C@H](C2CCCCC2)NC(=O)[C@H](CCC)N(C)C(=O)[C@@H]1CCCC [Example 77, (3R,6S,9S,12S,15S,18R,19R)-9-(Aminomethyl)-18,19-dibutyl-12-cyclohexyl-6-((S)-1-hydroxyethyl)-3,16-dimethyl-15-propyl-1-oxa-4,7,10,13,16-pentaazacyclononadecane-5,8,11,14,17-pentaone] (cyclo([Chg][Dap][aThr][X5][NMeNva])) | 4.4 µM (≈ 3 µg/mL)
10 | CCCCCC[C@H]1OC[C@@H](C)NC(=O)[C@H](COCCCN(C)C)NC(=O)[C@H](CN)NC(=O)[C@H](C2CCCCC2)NC(=O)[C@H](CC(C)C)N(C)C(=O)[C@@H]1C [Example 78, (3R,6S,9S,12S,15S,18R,19R)-9-(Aminomethyl)-12-cyclohexyl-6-((3-(dimethylamino)propoxy)methyl)-19-hexyl-15-isobutyl-3,16,18-trimethyl-1-oxa-4,7,10,13,16-pentaazacyclononadecane-5,8,11,14,17-pentaone] (cyclo([Chg][Dap]S(Propyl(3-NMe2))[X2][NMeL])) | 25 µM (≈ 18.8 µg/mL)
11 | CCC[C@H]1C(=O)N[C@@H](C2CCCCCC2)C(=O)N[C@@H](CN)C(=O)N[C@@H]([C@H](C)O)C(=O)NCC(=O)O[C@H](CC2CC3CCC2CC3)[C@@H](C)C(=O)N1C (stereo partly drawn) [Example 79, (6S,9S,12S,15S,18R,19R)-9-(Aminomethyl)-19-(bicyclo[2.2.2]octan-2-ylmethyl)-12-cycloheptyl-6-((S)-1-hydroxyethyl)-16,18-dimethyl-15-propyl-1-oxa-4,7,10,13,16-pentaazacyclononadecane-2,5,8,11,14,17-hexaone] | 0.78 µM (≈ 0.561 µg/mL)
12 | CCCCCC[C@H]1OCCNC(=O)[C@H](CO[C@H]2C[C@H](N)C2)NC(=O)[C@H](CN)NC(=O)[C@H](C2CCCCCC2)NC(=O)[C@H](CCC)N(C)C(=O)[C@@H]1C [Example 80, (6S,9S,12S,15S,18R,19R)-6-(((1r,3S)-3-Aminocyclobutoxy)methyl)-9-(aminomethyl)-12-cycloheptyl-19-hexyl-16,18-dimethyl-15-propyl-1-oxa-4,7,10,13,16-pentaazacyclononadecane-5,8,11,14,17-pentaone] (cyclo([Dap]S(Cyclobutyl(trans-3-NH2))[X14][NMeNva][Gly(cHept)])) | 12 µM (≈ 8.66 µg/mL)
13 | CCCCCC[C@H]1OC[C@@H](C)NC(=O)[C@H](COCC(F)(F)CN)NC(=O)[C@H](CN)NC(=O)[C@H](C2CCCCC2)NC(=O)[C@H](CC(C)C)N(C)C(=O)[C@@H]1C [Example 81, (3R,6S,9S,12S,15S,18R,19R)-6-((3-Amino-2,2-difluoropropoxy)methyl)-9-(aminomethyl)-12-cyclohexyl-19-hexyl-15-isobutyl-3,16,18-trimethyl-1-oxa-4,7,10,13,16-pentaazacyclononadecane-5,8,11,14,17-pentaone] (cyclo([Chg][Dap]S(X4)[X2][NMeL])) | 12 µM (≈ 9.12 µg/mL)
14 | CCCCCC[C@H]1OC[C@@H](C)NC(=O)[C@H](COCCCNC(=N)N)NC(=O)[C@H](CN)NC(=O)[C@H](C2CCCCC2)NC(=O)[C@H](CC(C)C)N(C)C(=O)[C@@H]1C [Example 82, 1-(3-(((3R,6S,9S,12S,15S,18R,19R)-9-(Aminomethyl)-12-cyclohexyl-19-hexyl-15-isobutyl-3,16,18-trimethyl-5,8,11,14,17-pentaoxo-1-oxa-4,7,10,13,16-pentaazacyclononadecan-6-yl)methoxy)propyl)guanidine] (cyclo([Chg][Dap]S(Propyl(3-guanidino))[X2][NMeL])) | 4.4 µM (≈ 3.37 µg/mL)
15 | CCC[C@H]1C(=O)N[C@@H](C2CCCCCC2)C(=O)N[C@@H](CN)C(=O)N[C@@H]([C@H](C)O)C(=O)NCC(=O)O[C@H](C[C@@H]2C[C@@H]3CC[C@@H](C3)C2)[C@@H](C)C(=O)N1C [Example 83, (6S,9S,12S,15S,18R,19R)-9-(Aminomethyl)-19-(((1R,3s,5S)-bicyclo[3.2.1]octan-3-yl)methyl)-12-cycloheptyl-6-((S)-1-hydroxyethyl)-16,18-dimethyl-15-propyl-1-oxa-4,7,10,13,16-pentaazacyclononadecane-2,5,8,11,14,17-hexaone] | 0.39 µM (≈ 0.28 µg/mL)
16 | CCC[C@H]1C(=O)N[C@@H](C2CCCCCC2)C(=O)N[C@@H](CN)C(=O)N[C@@H]([C@H](C)O)C(=O)NCC(=O)O[C@H](CC2CC3(CCC3)C2)[C@@H](C)C(=O)N1C [Example 84, (6S,9S,12S,15S,18R,19R)-9-(Aminomethyl)-12-cycloheptyl-6-((S)-1-hydroxyethyl)-16,18-dimethyl-15-propyl-19-(spiro[3.3]heptan-2-ylmethyl)-1-oxa-4,7,10,13,16-pentaazacyclononadecane-2,5,8,11,14,17-hexaone] | 0.78 µM (≈ 0.55 µg/mL)
17 | CCC[C@H]1C(=O)N[C@@H](C2CCCCC2)C(=O)N[C@@H](CN)C(=O)N[C@@H]([C@H](C)O)C(=O)N[C@H](C)CO[C@@H]2CCCCCC[C@H]2C(=O)N1C [Example 86, (3R,6S,9S,12S,15S,17aR,23aR)-9-(Aminomethyl)-12-cyclohexyl-6-((S)-1-hydroxyethyl)-3,16-dimethyl-15-propyloctadecahydrocycloocta[r][1]oxa[4,7,10,13,16]pentaazacyclononadecine-5,8,11,14,17(2H)-pentaone] (cyclo([Chg][Dap][aThr][X21][NMeNva])) | 50 µM (≈ 32.5 µg/mL)
18 | CC[C@@H](C)[C@@H]1NC(=O)[C@H](CC(C)C)N(C)C(=O)[C@H](C)[C@@H](CCC23CC4CC(CC(C4)C2)C3)OC(=O)CNC(=O)[C@H](CO)NC(=O)[C@H](CN)NC1=O [Example 94, (6S,9S,12S,15S,18R,19R)-19-[2-(1-adamantyl)ethyl]-9-(aminomethyl)-6-(hydroxymethyl)-15-isobutyl-16,18-dimethyl-12-[(1R)-1-methylpropyl]-1-oxa-4,7,10,13,16-pentazacyclononadecane-2,5,8,11,14,17-hexone] | 4.4 µM (≈ 3.16 µg/mL)

From patent US11279735B2, “Cyclic peptide antibiotics” (priority 2017, dated 2022)
